Values after ≈ are worked out from the molar mass of the structure shown. Active and inactive are the calls of the source. The rule behind the calls is not given here.
Key:
[1] = Half life at pH 6.4; assay type: ADME; conditions: buffer
Homo sapiens [2] = test: In vivo tumor inhibition against human colon (HC-1) xenograft after i.p. administration to C3H nude mice on days 10; assay type: functional; set-up: concentration or dose not given beside the values
[3] = Half life at pH 5.4; assay type: ADME; conditions: buffer
[4] = Half life at pH 7.4; assay type: ADME; conditions: buffer
CCRF-CEM = test: In vitro cytotoxicity against human leukemia cell line CCRF-CEM; assay type: functional, cell-based
Homo sapiens [5] = test: In vivo tumor inhibition against human colon (HC-1) xenograft after i.p. administration to C3H nude mice on days 4; assay type: functional; set-up: concentration or dose not given beside the values
Homo sapiens [6] = test: In vivo tumor inhibition against human colon (HC-1) xenograft after i.p. administration to C3H nude mice on days 7; assay type: functional; set-up: concentration or dose not given beside the values
Homo sapiens [7] = test: In vivo tumor inhibition against human colon (HC-1) xenograft after i.p. administration to C3H nude mice on day 1; assay type: functional; set-up: concentration or dose not given beside the values
Homo sapiens [8] = test: In vivo inhibition against human colon (HC-1) xenograft at a dose of 75 mg/kg; assay type: functional
Homo sapiens [9] = test: In vivo inhibition against human colon (HC-1) xenograft at a dose of 50 mg/kg; assay type: functional
Homo sapiens [10] = test: In vivo inhibition against human colon (HC-1) xenograft at a dose of 20 mg/kg; assay type: functional
Homo sapiens [11] = test: In vivo inhibition against human colon (HC-1) xenograft at a dose of 37.5 mg/kg; assay type: functional
Homo sapiens [12] = test: Effective dose for the dose dependent inhibition of tumor growth against human colon (HC-1) xenograft in mice; assay type: functional
Homo sapiens [13] = test: Effective dose for the dose dependent inhibition of tumor growth against human colon (HC-1) xenograft in mice; Inactive; assay type: functional, organism-based
[14] = Half life at pH 6.4; no dissociation up to day 33; assay type: ADME; conditions: buffer
[15] = Half life at pH 7.4; no dissociation up to day 33; assay type: ADME; conditions: buffer
[16] = Half life at pH 5.4; no dissociation up to day 33; assay type: ADME; conditions: buffer

Compound	half-life [1]	Inhibition (Homo sapiens [2])	half-life [3]	half-life [4]	IC50 (CCRF-CEM)	Inhibition (Homo sapiens [5])	Inhibition (Homo sapiens [6])	Inhibition (Homo sapiens [7])	inhibition in vivo at 75 mg/kg (Homo sapiens [8])	inhibition in vivo at 50 mg/kg (Homo sapiens [9])	inhibition in vivo at 20 mg/kg (Homo sapiens [10])	inhibition in vivo at 37.5 mg/kg (Homo sapiens [11])	ED50 (Homo sapiens [12])	ED50 (Homo sapiens [13])	T1/2 [14]	T1/2 [15]	T1/2 [16]
COc1ccc(C(Nc2nc(N)nc3c2ncn3[C@@H]2O[C@H](CO)[C@@H](O)C2(F)F)(c2ccc(OC)cc2)c2ccc(C(=O)NC(C)C)cc2)cc1	14.8 h	>95%	3.71 h	146 h	0.078 µg/mL (≈ 0.113 µM)	>95%	>95%	>95%									
COc1ccc(C(Nc2nc(N)nc3c2ncn3[C@@H]2O[C@H](CO)[C@@H](O)C2(F)F)(c2ccccc2)c2ccc(C(=O)NC(C)C)cc2)cc1 (stereo not given in full)	547 h	>95%	16.7 h	800 h	0.1 µg/mL (≈ 0.152 µM)	>95%	>95%	>95%									
Nc1nc(N)c2ncn([C@@H]3O[C@H](CO)[C@@H](O)C3(F)F)c2n1					0.024 µg/mL (≈ 0.0794 µM)				> 95%	> 95%	> 95%	> 95%					
Cc1ccc(C(Nc2nc(N)nc3c2ncn3[C@@H]2O[C@H](CO)[C@@H](O)C2(F)F)(c2ccccc2)c2ccc(C(=O)NC(C)C)cc2)cc1 (stereo not given in full)		>95%			0.8 µg/mL (≈ 1.24 µM)	>95%	>95%	>95%					30 mg/kg				
CC(C)NC(=O)c1ccc(C(Nc2nc(N)nc3c2ncn3[C@@H]2O[C@H](CO)[C@@H](O)C2(F)F)(c2ccccc2)c2ccccc2)cc1		>95%			1.7 µg/mL (≈ 2.7 µM)	>95%	>95%	>95%						inactive	no dissociation up to day 33	no dissociation up to day 33	no dissociation up to day 33
COc1ccc(C(Nc2nc(N)nc3c2ncn3[C@@H]2O[C@H](CO)[C@@H](O)C2(F)F)(c2ccc(OC)cc2)c2cccc(C(=O)NC(C)C)c2)cc1	23.3 h		2.35 h	133 h	0.084 µg/mL (≈ 0.122 µM)												
COc1ccc(C(Nc2nc(N)nc3c2ncn3[C@@H]2O[C@H](CO)[C@@H](O)C2(F)F)(c2ccc(C)cc2)c2ccc(C(=O)NC(C)C)cc2)cc1 (stereo not given in full)		>95%			0.1 µg/mL (≈ 0.148 µM)	>95%	>95%	>95%									
